Assay results reported in ChEMBL document CHEMBL3808378, “Enantioselective syntheses of both enantiomers of 9'-dehydroxyimperanene and 7,8-dihydro-9'-dehydroxyimperanene and the comparison of biological activity between 9-norlignans and dihydroguaiaretic acids” (Bioorg Med Chem Lett, 2016).
Values after ≈ are worked out from the molar mass of the structure shown.

Columns and labels:
[1] = tested on: Fusarium solani; experiment: Antifungal activity against Fusarium solani assessed as mycelial colony growth levels at 0.25 mM after 3 days by caliper analysis; assay type: functional
[2] = Cytotoxicity against fall armyworm Sf9 cells assessed as reduction in cell viability after 48 hrs by WST-8 reduction assay; assay type: cell-based; settings: Spodoptera frugiperda, Sf9, 48 h
[3] = tested on: Culex pipiens; experiment: Antilarvicidal activity against Culex pipiens larvae after 24 hrs; assay type: functional
[4] = tested on: Alternaria alternata; experiment: Antifungal activity against Alternaria alternata assessed as mycelial colony growth at 0.25 mM after 3 days by caliper analysis; assay type: functional
[5] = tested on: Jonesia denitrificans; experiment: Antibacterial activity against Listeria denitrificans JCM 11481 after 24 hrs by 2 fold dilution method; assay type: functional; settings: JCM 11481, 24 h
[6] = tested on: Bacillus subtilis; experiment: Antibacterial activity against Bacillus subtilis subsp. subtilis NBRC 13719 after 24 hrs by 2 fold dilution method; assay type: functional; settings: NBRC 13719, 24 h
[7] = Cytotoxicity against human HL60 cells assessed as reduction in cell viability after 48 hrs by WST-8 reduction assay; assay type: functional, cell-based; settings: HL-60, 48 h
[8] = tested on: Lolium multiflorum; experiment: Growth inhibition of Italian ryegrass assessed as reduction in root growth at 1 mM after 5 days; assay type: functional; settings: 120 h, read-out: GI
[9] = Antifungal activity against Bipolaris oryzae assessed as mycelial colony growth levels at 0.25 mM after 3 days by caliper analysis; assay type: functional
[10] = tested on: HeLa; experiment: Cytotoxicity against human HeLa cells assessed as reduction in cell viability after 48 hrs by WST-8 reduction assay; assay type: functional, cell-based
[11] = tested on: Lolium multiflorum; experiment: Growth inhibition of Italian ryegrass assessed as reduction in shoot growth at 1 mM after 5 days; assay type: functional; settings: 120 h, read-out: GI
[12] = tested on: Colletotrichum lagenaria; experiment: Antifungal activity against Colletotrichum lagenarium assessed as mycelial colony growth levels at 0.25 mM after 5 days by caliper analysis; assay type: functional
[13] = tested on: Salmonella enterica; experiment: Antibacterial activity against Salmonella choleraesuis subsp. choleraesuis JCM 6977 after 24 hrs by 2 fold dilution method; assay type: functional; settings: JCM 6977, 24 h
[14] = Selectivity index, ratio of IC50 for fall armyworm Sf9 cells to IC50 for Cytotoxicity against human HL60 cells; assay type: toxicity, cell-based; settings: fall armyworm and human, read-out: Ratio IC50
[15] = Selectivity index, ratio of IC50 for fall armyworm sf9 cells to IC50 for Cytotoxicity against human HeLa cells; assay type: toxicity, cell-based; settings: fall armyworm and human, read-out: Ratio IC50

Row | SMILES | Activity [1] [%] | IC50 [2] [µM] | LD50 [3] [×10⁻⁵ M] | Activity [4] [%] | MIC [5] [µM] | MIC [6] [µM] | IC50 [7] [µM] | inhibition of growth at 1000 µM [8] [%] | Activity [9] [%] | IC50 [10] [µM] | inhibition of growth at 1000 µM [11] [%] | Activity [12] [%] | MIC [13] [µM] | selectivity ratio [14] | selectivity ratio [15]
1 | COc1cc(C[C@@H](C)[C@H](C)Cc2ccc(O)c(OC)c2)ccc1O [(-)-DIHYDROGUAIARETICACID] | 36.5 | 29 | 3.52 | 32 | 390 (≈ 129 µg/mL) | 1560 (≈ 515 µg/mL) | 22 | 18.4 | 49.9 | 26 | 14.9 | 33.8 | – | – | –
2 | COc1cc(C[C@H](C)[C@@H](C)Cc2ccc(O)c(OC)c2)ccc1O | 34.5 | 18 | 4.03 | 38 | 390 (≈ 129 µg/mL) | 1560 (≈ 515 µg/mL) | 32 | 51.9 | 49.9 | 24 | 17.8 | 20.1 | 3130 (≈ 1030 µg/mL) | 1.3 | 1.3
3 | COc1cc(CC[C@H](C)Cc2ccc(O)c(OC)c2)ccc1O | 95.4 | 12 | 9.67 | 44.4 | 1560 (≈ 494 µg/mL) | 3130 (≈ 990 µg/mL) | 5.6 | 13.3 | 46.4 | 6.1 | 19.9 | 43.1 | – | 2 | 2
4 | COc1cc(CC[C@@H](C)Cc2ccc(O)c(OC)c2)ccc1O | 70.1 | 25 | 9.9 | 32.3 | 1560 (≈ 494 µg/mL) | 3130 (≈ 990 µg/mL) | 12 | -7.01 | 47.2 | 21 | 2.2 | 39.4 | 6250 (≈ 1980 µg/mL) | – | –
5 | COc1cc(C[C@@H](C)[C@@H](C)Cc2ccc(O)c(OC)c2)ccc1O [MESODIHYDROGUAIARETIC ACID] | 45.8 | 17 | 5.12 | 30 | 1560 (≈ 515 µg/mL) | 1560 (≈ 515 µg/mL) | 41 | 68.8 | 53.7 | 28 | 20.9 | 26 | – | 1.3 | 1.3
6 | COc1cc(/C=C/[C@H](C)Cc2ccc(O)c(OC)c2)ccc1O | 95.7 | 32 | 11 | 66 | 3130 (≈ 984 µg/mL) | 6250 (≈ 1960 µg/mL) | 14 | 11.5 | 66.4 | 18 | 14.8 | 49.4 | – | – | –
7 | COc1cc(/C=C/[C@@H](C)Cc2ccc(O)c(OC)c2)ccc1O | 96.1 | 30 | 48 | 43.3 | 3130 (≈ 984 µg/mL) | 6250 (≈ 1960 µg/mL) | 21 | 14.8 | 57.6 | 19 | 5.2 | 67.8 | – | – | –
